Reference: US20240099991A1, “HOST DIRECTED DRUG COMBINATIONS FOR TREATMENT OF VIRAL INFECTIONS” (priority 2021, published 2024)
Read-outs that look alike come from different tables or passages of the source.

Experiments:
SARS-CoV-2 [1] = experiment: In vivo efficacy against SARS-CoV-2 in Syrian Golden Hamster Model (lung viral load); conditions: oral, once daily for 3 days (1-3 DPI), Atovaquone 200 mg/kg, Cepharantine 8 mg/kg, combination 200 + 8 mg/kg
Description: In vivo efficacy evaluation of Atovaquone and Cepharanthine alone and in combination against SARS-CoV-2 in Syrian Golden Hamster Model [Study Protocol Reference:) Syrian hamsters as a small animal model for SARS-CoV-2 infection and countermeasure development. Masaki Imai et al., PNAS 2020, 117(28)16587-16595]
Data Analysis One way ANOVA-Dunnett's multiple comparison test

SARS-CoV-2 [2] = format: cell-based
Vero E6 cells [3] = experiment: Cytotoxicity of test agents in the Vero E6 checkerboard assay; conditions: Experiment 2, highest concentration tested
Vero E6 cells [4] = system: Vero E6 cells

O=C1C(O)=C([C@H]2CC[C@H](c3ccc(Cl)cc3)CC2)C(=O)c2ccccc21 [Atovaquone, atovaquone]
Mean Difference (Log10PFU/lung), Infection Control vs. group (SARS-CoV-2 [1]): 0.74 Log10PFU/lung | antiviral efficacy (SARS-CoV-2 [2]; 0.12-0.37, alone): inactive | inhibition of virus induced cytopathic effects (CPE) (SARS-CoV-2 [2]; Experiment 1, Atovaquone 0.12 micromol alone (Niclosamide 0.00)): 2.38% | inhibition of virus induced cytopathic effects (CPE) (SARS-CoV-2 [2]; Experiment 1, Atovaquone 0.37 micromol alone (Niclosamide 0.00)): 9.52% | inhibition of virus induced cytopathic effects (CPE) (SARS-CoV-2 [2]; Experiment 1, Atovaquone 1.10 micromol alone (Niclosamide 0.00)): 16.67% | inhibition of virus induced cytopathic effects (CPE) (SARS-CoV-2 [2]; Experiment 1, Atovaquone 3.30 micromol alone (Niclosamide 0.00)): 50.00% | inhibition of virus induced cytopathic effects (CPE) (SARS-CoV-2 [2]; Experiment 2, Atovaquone 0.12 micromol alone (Cepharanthine 0.00)): 2.38% | inhibition of virus induced cytopathic effects (CPE) (SARS-CoV-2 [2]; Experiment 2, Atovaquone 0.37 micromol alone (Cepharanthine 0.00)): 9.52% | inhibition of virus induced cytopathic effects (CPE) (SARS-CoV-2 [2]; Experiment 2, Atovaquone 1.10 micromol alone (Cepharanthine 0.00)): 16.67% | inhibition of virus induced cytopathic effects (CPE) (SARS-CoV-2 [2]; Experiment 2, Atovaquone 3.30 micromol alone (Cepharanthine 0.00)): 50.00% | inhibits virus induced cytopathic effects (CPE) (SARS-CoV-2 [2]; concentration of 3.3 micro mol): 50%

COc1ccc2cc1Oc1ccc(cc1)C[C@H]1c3c(cc4c(c3Oc3cc5c(cc3OC)CCN(C)[C@@H]5C2)OCO4)CCN1C [Cepharanthine, cepharantine]
cytotoxicity (Vero E6 cells [3]): neither cepharantine nor atovaquone are cytotoxic | Mean Difference (Log10PFU/lung), Infection Control vs. group (SARS-CoV-2 [1]): 0.42 Log10PFU/lung | antiviral efficacy (SARS-CoV-2 [2]; 0.04-0.12 micromole, alone): inactive | inhibition of virus induced cytopathic effects (CPE) (SARS-CoV-2 [2]; Cepharanthine 0.04 micromol alone (Atovaquone 0.00)): 7.14% | inhibition of virus induced cytopathic effects (CPE) (SARS-CoV-2 [2]; Cepharanthine 0.12 micromol alone (Atovaquone 0.00)): 9.52% | inhibition of virus induced cytopathic effects (CPE) (SARS-CoV-2 [2]; Cepharanthine 0.37 micromol alone (Atovaquone 0.00)): 14.29% | inhibition of virus induced cytopathic effects (CPE) (SARS-CoV-2 [2]; Cepharanthine 1.10 micromol alone (Atovaquone 0.00)): 38.10%

O=C(Nc1ccc([N+](=O)[O-])cc1Cl)c1cc(Cl)ccc1O [Niclosamide, niclosamide]
cytotoxicity (Vero E6 cells [4]): non cytotoxic | antiviral efficacy (SARS-CoV-2 [2]; 0.12 to 0.37 micromolar, without the addition of atovaquone): inactive | inhibition of virus induced cytopathic effects (CPE) (SARS-CoV-2 [2]; Niclosamide 0.12 micromol alone (Atovaquone 0.00)): 11.90% | inhibition of virus induced cytopathic effects (CPE) (SARS-CoV-2 [2]; Niclosamide 0.37 micromol alone (Atovaquone 0.00)): 9.52% | inhibition of virus induced cytopathic effects (CPE) (SARS-CoV-2 [2]; Niclosamide 1.10 micromol alone (Atovaquone 0.00)): 16.67% | antiviral efficacy (SARS-CoV-2 [2]; concentrations ranging from 0.12 to 1,1 micro mol): non-efficacious

CCC(CC)COC(=O)[C@H](C)N[P@](=O)(OC[C@H]1O[C@@](C#N)(c2ccc3c(N)ncnn23)[C@H](O)[C@@H]1O)Oc1ccccc1 [Remdesivir]
Mean Difference (Log10PFU/lung), Infection Control vs. group (SARS-CoV-2 [1]): 0.97 Log10PFU/lung
